From publication doi:10.1101/2021.02.21.432137v1 (biorxiv, 2021)
Where two headings read alike, the source gives them in different places.

Key:
[1] = biological target: T1, NanoLuc-STK3 (STK3-NanoBRET) (Homo sapiens, UniProt Q13188); assay: NanoBRET tracer displacement in live cells; format: cell-based
T1 sequence (Q13188 1-491): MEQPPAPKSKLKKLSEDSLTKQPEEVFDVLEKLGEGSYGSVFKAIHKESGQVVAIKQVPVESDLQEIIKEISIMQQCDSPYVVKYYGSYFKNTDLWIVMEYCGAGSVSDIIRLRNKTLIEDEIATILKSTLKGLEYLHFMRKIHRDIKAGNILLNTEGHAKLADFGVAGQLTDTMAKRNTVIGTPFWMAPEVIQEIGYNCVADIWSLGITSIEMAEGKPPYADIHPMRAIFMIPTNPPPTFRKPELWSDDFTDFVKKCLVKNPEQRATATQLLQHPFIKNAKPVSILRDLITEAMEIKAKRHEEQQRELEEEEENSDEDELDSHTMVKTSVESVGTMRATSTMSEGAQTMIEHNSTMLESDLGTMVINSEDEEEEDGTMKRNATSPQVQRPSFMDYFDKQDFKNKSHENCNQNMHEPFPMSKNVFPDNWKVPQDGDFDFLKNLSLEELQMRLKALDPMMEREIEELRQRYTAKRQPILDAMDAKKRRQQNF

[2] = biological target: T2, human recombinant STK3 (MST2) (Homo sapiens, UniProt Q13188); assay: radiometric kinase assay; format: biochemical
T2 sequence (Q13188 1-491 limits assumed): T1 sequence (Q13188 1-491)

[3] = biological target: human recombinant STK24 (aka MST3) (Homo sapiens, UniProt Q9Y6E0); conditions: inhibitor
[4] = biological target: human recombinant STK26 (aka MST4) (Homo sapiens, UniProt Q9P289); conditions: inhibitor
[5] = biological target: T3, human recombinant STK4 (Homo sapiens, UniProt Q13043); conditions: inhibitor
T3 sequence (Q13043 1-487): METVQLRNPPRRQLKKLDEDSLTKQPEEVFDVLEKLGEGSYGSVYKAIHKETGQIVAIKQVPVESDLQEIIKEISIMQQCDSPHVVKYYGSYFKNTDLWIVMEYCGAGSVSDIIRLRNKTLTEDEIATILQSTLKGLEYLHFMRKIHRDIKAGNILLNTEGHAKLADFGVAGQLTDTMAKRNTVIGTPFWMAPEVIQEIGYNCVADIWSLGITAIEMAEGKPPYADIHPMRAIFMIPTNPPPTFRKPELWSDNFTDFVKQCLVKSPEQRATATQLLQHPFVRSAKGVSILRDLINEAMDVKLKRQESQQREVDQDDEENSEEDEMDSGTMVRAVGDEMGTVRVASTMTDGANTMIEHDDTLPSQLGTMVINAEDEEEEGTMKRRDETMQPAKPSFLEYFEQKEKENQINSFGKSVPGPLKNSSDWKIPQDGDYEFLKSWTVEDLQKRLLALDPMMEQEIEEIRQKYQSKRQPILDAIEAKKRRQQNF

[6] = biological target: T2, human recombinant STK3 (MST2); conditions: inhibitor

Sequence of human recombinant STK26 (aka MST4) (Q9P289 2-416): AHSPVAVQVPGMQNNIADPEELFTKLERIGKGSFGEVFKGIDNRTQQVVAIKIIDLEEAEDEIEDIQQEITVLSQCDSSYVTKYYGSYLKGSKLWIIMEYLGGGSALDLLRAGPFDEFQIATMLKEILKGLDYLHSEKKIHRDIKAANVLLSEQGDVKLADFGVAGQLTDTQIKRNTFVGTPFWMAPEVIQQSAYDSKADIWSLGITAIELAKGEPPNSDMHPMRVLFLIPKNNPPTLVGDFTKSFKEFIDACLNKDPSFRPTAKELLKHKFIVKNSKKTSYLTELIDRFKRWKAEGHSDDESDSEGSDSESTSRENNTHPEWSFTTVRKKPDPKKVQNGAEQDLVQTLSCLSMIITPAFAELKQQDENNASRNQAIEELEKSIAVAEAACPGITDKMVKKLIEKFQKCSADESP
Sequence of human recombinant STK24 (aka MST3) (Q9Y6E0 whole entry): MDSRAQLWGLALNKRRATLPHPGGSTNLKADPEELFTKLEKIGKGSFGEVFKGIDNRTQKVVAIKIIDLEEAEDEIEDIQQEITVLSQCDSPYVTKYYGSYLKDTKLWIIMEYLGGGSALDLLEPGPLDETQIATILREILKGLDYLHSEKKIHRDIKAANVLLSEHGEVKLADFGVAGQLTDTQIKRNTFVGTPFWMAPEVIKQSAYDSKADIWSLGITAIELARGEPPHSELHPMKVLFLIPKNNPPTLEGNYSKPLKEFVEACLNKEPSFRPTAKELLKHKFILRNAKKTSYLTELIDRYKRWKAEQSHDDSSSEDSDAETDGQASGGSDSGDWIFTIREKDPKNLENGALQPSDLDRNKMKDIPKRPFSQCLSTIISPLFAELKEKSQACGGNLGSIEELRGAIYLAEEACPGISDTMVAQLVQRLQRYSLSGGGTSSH

CS(=O)(=O)N1CCN(C(=O)c2c[nH]c3ncc(C4CC4)nc23)CC1 [A9, UNC-BE4-031]
IC50 [1]: > 10000 nM

C[C@H](NC(=O)c1c[nH]c2ncc(-c3ccccc3)nc12)C(C)(C)O [A4, UNC-BE4-36-1]
IC50 [1]: 2100 nM | IC50 [2]: 124 nM

COc1cccc([C@H](C)NC(=O)c2c[nH]c3ncc(-c4ccccc4)nc23)c1 [A5]
MST3 % activity remaining (1µM) [3]: 21% | MST4 % activity remaining (1µM) [4]: 74% | STK4 % activity remaining (1µM) [5]: 39%

CN(C)c1ncnc2[nH]cc(-c3cccc(C#N)c3)c12 [B1, UNC-SOB-5-16]
IC50 [1]: 4300 nM | IC50 [2]: 113 nM

C[C@H](NC(=O)c1c[nH]c2ncc(-c3ccccc3)nc12)C(C)(C)C [A3]
MST3 % activity remaining (1µM) [3]: 6% | MST4 % activity remaining (1µM) [4]: 27% | STK4 % activity remaining (1µM) [5]: 2%

CN1C(=O)c2sccc2N(C)c2nc(Nc3ccc(S(N)(=O)=O)cc3)ncc21 [XMU-MP-1]
MST3 % activity remaining (1µM) [3]: 15% | MST4 % activity remaining (1µM) [4]: 40% | STK4 % activity remaining (1µM) [5]: 14%

C[C@H](NC(=O)c1c[nH]c2ncc(C3CC3)nc12)C(C)(C)O [A2]
MST3 % activity remaining (1µM) [3]: 12% | STK3 % activity remaining (1µM) [6]: 15% | MST4 % activity remaining (1µM) [4]: 54% | STK4 % activity remaining (1µM) [5]: 7%

O=C(c1c[nH]c2ncc(C3CC3)nc12)N1CCOCC1 [A13]
MST3 % activity remaining (1µM) [3]: 85% | STK3 % activity remaining (1µM) [6]: 138% | MST4 % activity remaining (1µM) [4]: 82% | STK4 % activity remaining (1µM) [5]: 84%

COc1cccc([C@H](C)NC(=O)c2c[nH]c3ncc(-c4ccccc4)nc23)c1 [A5, UNC-BE4-040-1]
IC50 ([1]; read-out: NB IC50, NanoBRET Tracer K10 at […], live HEK-293 cells): > 10000 nM | IC50 ([2]; ATP at Km, myelin basic protein substrate): 391 nM

C[C@H](NC(=O)c1c[nH]c2ncc(-c3ccccc3)nc12)C(C)(C)O [A4]
MST3 % activity remaining (1µM) [3]: 9% | MST4 % activity remaining (1µM) [4]: 51% | STK4 % activity remaining (1µM) [5]: 4%

COCCCNC(=O)c1c[nH]c2ncc(C3CC3)nc12 [A6]
MST3 % activity remaining (1µM) [3]: 31% | STK3 % activity remaining (1µM) [6]: 44% | MST4 % activity remaining (1µM) [4]: 74% | STK4 % activity remaining (1µM) [5]: 26%

O=C(c1c[nH]c2ncc(C3CC3)nc12)N1CCOCC1 [A13, UNC-BE4-036]
IC50 [1]: > 10000 nM

C[C@H](NC(=O)c1c[nH]c2ncc(-c3ccccc3)nc12)C(C)(C)C [A3, UNC-BE4-035]
IC50 [1]: 2000 nM | IC50 [2]: 7 nM

CS(=O)(=O)N1CCN(C(=O)c2c[nH]c3ncc(C4CC4)nc23)CC1 [A9]
MST3 % activity remaining (1µM) [3]: 92% | STK3 % activity remaining (1µM) [6]: 82% | MST4 % activity remaining (1µM) [4]: 106% | STK4 % activity remaining (1µM) [5]: 98%

COCCCNC(=O)c1c[nH]c2ncc(C3CC3)nc12 [A6, UNC-BE4-032]
IC50 [1]: > 10000 nM

CNS(=O)(=O)CCNC(=O)c1c[nH]c2ncc(C3CC3)nc12 [A11]
MST3 % activity remaining (1µM) [3]: 60% | STK3 % activity remaining (1µM) [6]: 89% | MST4 % activity remaining (1µM) [4]: 71% | STK4 % activity remaining (1µM) [5]: 36%

CNS(=O)(=O)CCNC(=O)c1c[nH]c2ncc(C3CC3)nc12 [A11, UNC-BE4-033]
IC50 [1]: > 10000 nM

C[C@H](NC(=O)c1c[nH]c2ncc(C3CC3)nc12)C(C)(C)O [A2, UNC-BE4-018]
IC50 [1]: 9200 nM | IC50 [2]: 195 nM
